The subject of one assay is T1, PaHDR2.
T1 construct: gene HDR2; plastid transit peptide removed (borders only in supplemental primers); E. coli BL21-AI; anaerobic glutathione column; [4Fe-4S] enzyme
Put plainly: LC-MS/MS of DMADP + IDP, initial velocities, Lineweaver-Burk. It counts as biochemical, Picea abies. The note with it: anaerobic; 1 mM methyl viologen, 3 mM sodium dithionite, MgCl2; pH 6.5; 30 °C or 35 °C; text calls PaHDR1 the lower-affinity enzyme, against the printed order of Km values; Figure 3 legend.

The next assay relates to T2, PaHDR1.
T2 construct: gene HDR1; plastid transit peptide removed (borders only in supplemental primers); E. coli BL21-AI; anaerobic glutathione column; [4Fe-4S] enzyme
The assay is described as above. The note with it: anaerobic; 1 mM methyl viologen, 3 mM sodium dithionite, MgCl2; pH 6.5; 30 °C or 35 °C. It counts as biochemical, Picea abies.

Turning to `C/C(=C\COP(=O)(O)OP(=O)(O)O)CO` [HMBDP, (E)-4-hydroxy-3-methylbut-2-enyl diphosphate], the Km in the assay with PaHDR2 was 21.2 µM; with PaHDR1, 15.9 µM.

Values taken from paper PMC10231375, “HDR, the last enzyme in the MEP pathway, differently regulates isoprenoid biosynthesis in two woody plants” (Plant Physiology, 2023).
